Assay results published in ChEMBL document CHEMBL4177638, “Challenges in the development of an M4 PAM preclinical candidate: The discovery, SAR, and biological characterization of a series of azetidine-derived tertiary amides” (Bioorg Med Chem Lett, 2017).
Active and inactive are the calls of the source. The calls are words filed in the database; no cut-off is given here.

How the values were obtained:
[1] = biological target: T1, Muscarinic acetylcholine receptor M4 (Homo sapiens, UniProt P08173); assay: Positive allosteric modulation of human M4 receptor expressed in CHO cells co-expressing Gqi5 assessed as increase in acetylcholine-induced calcium mobilization; assay type: functional, cell-based
T1 sequence (P08173 whole entry): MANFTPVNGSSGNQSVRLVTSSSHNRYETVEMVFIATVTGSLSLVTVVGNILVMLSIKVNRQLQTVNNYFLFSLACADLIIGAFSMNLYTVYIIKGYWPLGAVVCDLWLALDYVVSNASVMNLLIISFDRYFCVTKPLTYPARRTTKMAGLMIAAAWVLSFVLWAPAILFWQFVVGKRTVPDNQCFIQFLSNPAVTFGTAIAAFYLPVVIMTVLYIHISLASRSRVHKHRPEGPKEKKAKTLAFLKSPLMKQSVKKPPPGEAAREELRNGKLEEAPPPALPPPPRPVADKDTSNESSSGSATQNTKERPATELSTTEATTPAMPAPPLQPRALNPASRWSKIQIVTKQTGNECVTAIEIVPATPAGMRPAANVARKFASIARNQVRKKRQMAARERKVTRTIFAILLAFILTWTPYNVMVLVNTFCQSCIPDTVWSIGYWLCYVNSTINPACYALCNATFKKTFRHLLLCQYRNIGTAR

[2] = biological target: T2, Muscarinic acetylcholine receptor M4 (Homo sapiens) (UniProt P08173); assay: Positive allosteric modulation of human M4 receptor expressed in CHO cells co-expressing Gqi5 assessed as increase in acetylcholine-induced calcium mobilization relative to acetylcholine; assay type: functional, cell-based
T2 sequence (whole entry): T1 sequence (P08173 whole entry)

[3] = Brain to plasma partition coefficient, Kp of the compound in rat; assay type: ADME, cell-free
[4] = biological target: T3, Muscarinic acetylcholine receptor M1 (Homo sapiens, UniProt P11229); assay: Positive allosteric modulation of human M1 receptor assessed as increase in acetylcholine-induced response; assay type: functional
T3 sequence (P11229 whole entry): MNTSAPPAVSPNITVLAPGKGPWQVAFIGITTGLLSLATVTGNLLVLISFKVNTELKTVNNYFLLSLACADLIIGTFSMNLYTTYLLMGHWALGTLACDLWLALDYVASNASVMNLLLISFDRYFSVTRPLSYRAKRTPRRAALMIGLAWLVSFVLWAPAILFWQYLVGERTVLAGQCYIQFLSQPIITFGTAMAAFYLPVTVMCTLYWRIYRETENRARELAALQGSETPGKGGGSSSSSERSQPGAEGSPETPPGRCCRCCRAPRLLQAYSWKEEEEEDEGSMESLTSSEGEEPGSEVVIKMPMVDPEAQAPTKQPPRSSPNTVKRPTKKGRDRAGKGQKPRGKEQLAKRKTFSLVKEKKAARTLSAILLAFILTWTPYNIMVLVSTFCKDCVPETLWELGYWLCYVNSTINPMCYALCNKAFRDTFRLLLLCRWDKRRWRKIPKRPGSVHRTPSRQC

[5] = biological target: T4, Muscarinic acetylcholine receptor M5 (Homo sapiens, UniProt P08912); assay: Positive allosteric modulation of human M5 receptor assessed as increase in acetylcholine-induced response; assay type: functional
T4 sequence (P08912 whole entry): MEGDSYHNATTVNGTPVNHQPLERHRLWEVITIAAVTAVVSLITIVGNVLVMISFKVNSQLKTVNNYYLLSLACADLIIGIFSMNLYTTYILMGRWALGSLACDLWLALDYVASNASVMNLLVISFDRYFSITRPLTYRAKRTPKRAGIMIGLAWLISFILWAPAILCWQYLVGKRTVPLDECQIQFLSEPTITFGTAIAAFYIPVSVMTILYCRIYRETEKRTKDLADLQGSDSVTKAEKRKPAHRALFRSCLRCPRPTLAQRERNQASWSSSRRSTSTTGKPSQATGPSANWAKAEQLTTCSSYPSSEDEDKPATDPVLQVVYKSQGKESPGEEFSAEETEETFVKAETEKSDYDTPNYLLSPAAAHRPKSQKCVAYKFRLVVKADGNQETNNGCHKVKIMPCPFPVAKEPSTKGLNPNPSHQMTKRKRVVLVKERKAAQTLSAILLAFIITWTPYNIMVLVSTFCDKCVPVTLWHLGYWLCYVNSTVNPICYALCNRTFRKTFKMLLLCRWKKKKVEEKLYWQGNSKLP

Rattus norvegicus = assay: Antipsychotic activity in rat assessed as reversal of amphetamine-induced hyperlocomotion at 30 mg/kg, po; assay type: functional
[6] = biological target: Muscarinic acetylcholine receptor M3 (Homo sapiens, UniProt P20309); assay: Positive allosteric modulation of human M3 receptor assessed as increase in acetylcholine-induced response; assay type: functional
[7] = Ratio of unbound brain to plasma concentration in rat; assay type: ADME, cell-free
[8] = Ratio of EC50 for rat M4 receptor to EC50 for human M4 receptor expressed in CHO cells co-expressing Gqi5; assay type: cell-based
[9] = biological target: T5, Muscarinic acetylcholine receptor M2 (Homo sapiens, UniProt P08172); assay: (§1) Positive allosteric modulation of human M2 receptor assessed as increase in acetylcholine-induced response; assay type: functional
T5 sequence (P08172 whole entry): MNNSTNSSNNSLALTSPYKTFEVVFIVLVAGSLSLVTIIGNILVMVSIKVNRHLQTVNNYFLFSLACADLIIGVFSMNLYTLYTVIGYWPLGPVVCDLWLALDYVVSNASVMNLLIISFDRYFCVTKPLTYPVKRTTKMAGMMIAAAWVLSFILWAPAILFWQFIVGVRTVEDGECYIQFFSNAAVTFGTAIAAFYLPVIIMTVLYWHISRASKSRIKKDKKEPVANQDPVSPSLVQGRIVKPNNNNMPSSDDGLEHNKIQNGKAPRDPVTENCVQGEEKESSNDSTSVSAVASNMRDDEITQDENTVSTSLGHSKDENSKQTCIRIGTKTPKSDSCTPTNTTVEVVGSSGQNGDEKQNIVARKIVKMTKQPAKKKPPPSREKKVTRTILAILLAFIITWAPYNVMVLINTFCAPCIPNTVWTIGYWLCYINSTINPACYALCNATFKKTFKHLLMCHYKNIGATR

[10] = biological target: T6, Muscarinic acetylcholine receptor M2 (Homo sapiens) (UniProt P08172); assay: Positive allosteric modulation of human M2 receptor assessed as increase in acetylcholine-induced response relative to acetylcholine; assay type: functional
T6 sequence (whole entry): T5 sequence (P08172 whole entry)

[11] = biological target: T6, Muscarinic acetylcholine receptor M2 (Homo sapiens); assay: as §1; assay type: functional
[12] = Oral bioavailability in dog at 10 mg/kg; assay type: ADME, organism-based, Canis lupus familiaris; conditions: in vivo
[13] = Clearance in Sprague-Dawley rat plasma at 0.1 to 1 mg/kg, iv; assay type: ADME, organism-based
[14] = Aqueous solubility of the compound at pH 7.4; assay type: physicochemical; conditions: aqueous medium
[15] = Ratio of unbound brain to plasma concentration in Sprague-Dawley rat at 0.1 to 0.2 mg/kg, iv measured after 0.25 hrs; assay type: ADME, organism-based; conditions: read-out: K(p,uu,brain)
[16] = Elimination half life in Sprague-Dawley rat at 0.1 to 1 mg/kg, iv; assay type: ADME, organism-based; conditions: in vivo, read-out: beta t1/2 (converted)
[17] = Brain to plasma partition coefficient, Kp of the compound in Sprague-Dawley rat at 0.1 to 0.2 mg/kg, iv measured after 0.25 hrs; assay type: ADME, organism-based

Sequence of Muscarinic acetylcholine receptor M3 (P20309 whole entry): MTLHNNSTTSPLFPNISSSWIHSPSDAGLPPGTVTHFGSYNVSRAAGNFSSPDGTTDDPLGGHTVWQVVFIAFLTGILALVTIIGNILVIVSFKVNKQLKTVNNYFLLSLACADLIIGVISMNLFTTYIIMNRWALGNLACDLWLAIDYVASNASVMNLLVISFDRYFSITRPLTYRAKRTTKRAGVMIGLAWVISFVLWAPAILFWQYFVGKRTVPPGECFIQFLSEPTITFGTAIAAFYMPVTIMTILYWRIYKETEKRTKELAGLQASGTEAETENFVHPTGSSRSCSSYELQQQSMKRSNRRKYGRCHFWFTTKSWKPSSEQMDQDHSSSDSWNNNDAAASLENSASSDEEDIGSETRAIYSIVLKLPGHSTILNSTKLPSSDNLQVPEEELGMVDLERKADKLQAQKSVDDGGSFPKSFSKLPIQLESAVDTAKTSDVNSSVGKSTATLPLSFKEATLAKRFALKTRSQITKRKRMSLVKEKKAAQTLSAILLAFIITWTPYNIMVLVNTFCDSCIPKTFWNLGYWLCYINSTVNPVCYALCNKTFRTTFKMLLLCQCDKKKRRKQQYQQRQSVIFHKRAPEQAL

## COc1ccccc1C1CN(C(=O)c2sc3nnc(C)c(C)c3c2N)C1
[1]
  EC50: 2290 nM
[2]
  %max: 54%

## Cc1ccccc1C1CN(C(=O)c2sc3nnc(C)c(C)c3c2N)C1
[1]
  EC50: 457 nM
[2]
  %max: 72%

## Cc1nnc2sc(C(=O)N3CC(O)(c4ccccc4)C3)c(N)c2c1C
[1]
  EC50: 1050 nM
[2]
  %max: 30%

## Cc1nnc2sc(C(=O)N3CC(c4ccc(Br)cc4)C3)c(N)c2c1C
[1]
  EC50: > 10000 nM

## Cc1nnc2sc(C(=O)N3CC(c4ccccc4)C3C)c(N)c2c1C (stereo not given)
[1]
  EC50: 1510 nM
[2]
  %max: 45%

## COc1ccc(C2CN(C(=O)c3sc4nnc(C)c(C)c4c3N)C2)cc1
[1]
  EC50: 331 nM
[2]
  %max: 94%

## Cc1ccc(C2CN(C(=O)c3sc4nnc(C)c(C)c4c3N)C2)cc1
[1]
  EC50: 1100 nM
[2]
  %max: 82%

## Cc1nnc2sc(C(=O)N3CC(F)(c4cccc(F)c4)C3)c(N)c2c1C
[1]
  EC50: 447 nM
[2]
  %max: 67%

## Cc1nnc2sc(C(=O)N3CC(c4cccs4)C3)c(N)c2c1C
[1]
  EC50: 200 nM
[2]
  %max: 78%

## Cc1nnc2sc(C(=O)N3CC(c4ccccc4)C3)c(N)c2c1C
[3]
  Kp: 2.6
[4]
  EC50: > 10000 nM
[5]
  EC50: > 10000 nM
Rattus norvegicus
  Activity: 32%
[1]
  EC50: 72 nM
[6]
  EC50: > 10000 nM
[2]
  %max: 65%
[7]
  K(p,uu,brain): 2.1
[8]
  Ratio EC50: 2
[9]
  EC50: > 10000 nM

## Cc1nnc2sc(C(=O)N3CC4(CCN(c5cccnc5)C4)C3)c(N)c2c1C
[2]
  %max: 53 to 57%

## Cc1nnc2sc(C(=O)N3CC(c4cccc(F)c4)C3)c(N)c2c1C
[3]
  Kp: 2.1
[1]
  EC50: 57 nM
[2]
  %max: 83%
[7]
  K(p,uu,brain): 0.92
[9]
  EC50: 2100 nM
[10]
  %max: 38%

## Cc1cccc(C2CN(C(=O)c3sc4nnc(C)c(C)c4c3N)C2)c1
[1]
  EC50: 851 nM
[2]
  %max: 83%

## Cc1nnc2sc(C(=O)N3CC(C4CCCCC4)C3)c(N)c2c1C
[3]
  Kp: 8.46
[1]
  EC50: 178 nM
[2]
  %max: 54%
[7]
  K(p,uu,brain): 0.71

## Cc1nnc2sc(C(=O)N3CC(c4ccc(F)cc4)C3)c(N)c2c1C
[3]
  Kp: 2.3
[1]
  EC50: 151 nM
[2]
  %max: 80%
[7]
  K(p,uu,brain): 1.3
[11]
  Activity: inactive

## Cc1nnc2sc(C(=O)N3CC(F)(c4ccccn4)C3)c(N)c2c1C
[1]
  EC50: 2240 nM
[2]
  %max: 78%

## COc1cccc(C2CN(C(=O)c3sc4nnc(C)c(C)c4c3N)C2)c1
[1]
  EC50: > 10000 nM

## Cc1nnc2sc(C(=O)N3CC(C)(F)C3)c(N)c2c1C
[1]
  EC50: 363 nM
[2]
  %max: 98%

## Cc1nnc2sc(C(=O)N3CC(c4ccc(Cl)cc4)C3)c(N)c2c1C
[1]
  EC50: > 10000 nM

## Cc1nnc2sc(C(=O)N3CC(c4ccccc4F)C3)c(N)c2c1C
[1]
  EC50: 407 nM
[2]
  %max: 75%

## COC1(c2cccc(F)c2)CN(C(=O)c2sc3nnc(C)c(C)c3c2N)C1
[1]
  EC50: 417 nM
[2]
  %max: 36%

## Cc1nnc2sc(C(=O)N3CC(c4cccc(F)c4)C3C)c(N)c2c1C (stereo not given)
[1]
  EC50: 1460 nM
[2]
  %max: 45%

## CCCCC1(F)CN(C(=O)c2sc3nnc(C)c(C)c3c2N)C1
[1]
  EC50: 316 nM
[2]
  %max: 85%

## Cc1nnc2sc(C(=O)NCc3ccc(S(=O)(=O)C(F)(F)F)cc3)c(N)c2c1C.Cl
[12]
  bioavailability: 4.7%

## Cc1nnc2sc(C(=O)NCc3ccc(S(=O)(=O)C(F)(F)F)cc3)c(N)c2c1C
[13]
  clearance: 1.6 mL/min/kg
[14]
  solubility: < 0.5 µM
[15]
  Kp uu at 0.25 h: 1.2
[16]
  half-life: 2.7 h
[17]
  Kp at 0.25 h: 0.11
